# Test system: focal middle cerebral arterial occlusion (MCAO) ischemia
# Settings: for infarct volume reduced compared to control animals: after 24 h of reperfusion; for infarct volume reduced compared to control animals / MABP, pO2, pCO2, pH or rectal temperature versus control animals: 4 mg/kg i.p. x4 prior to 1 h MCAO; for neurological deficits: behavior ranking 0 (normal) to 3 (severe), 4 mg/kg i.p. at 6.5 h, 4.5 h, 2.5 h and 0.5 h prior to ischemic injury, 1 h MCAO, mean ± SEM; for neurological deficits / infarct volume: n=8; for infarct volume: 4 mg/kg; for MABP, pO2, pCO2, pH or rectal temperature versus control animals: post ischemia
compound,measurement,value
Tyr-Ala-Phe-Asp-Val-Val-Gly-NH2 [deltorphin],infarct volume reduced compared to control animals,42%
same,neurological deficits,0.44 ± 0.11
same,infarct volume,45 ± 10 mm^2
same,"MABP, pO2, pCO2, pH or rectal temperature versus control animals",no significant differences
"CC(C)C[C@@H](NC(=O)[C@H](Cc1ccccc1)NC(=O)CNC(=O)[C@@H](C)NC(=O)[C@@H](N)Cc1ccc(O)cc1)C(=O)O [DADLE, Tyr-D-Ala-Gly-Phe-D-Leu-enkephalin]",infarct volume reduced compared to control animals,12%
same,neurological deficits,1.73 ± 0.20
same,infarct volume,67 ± 9 mm^2
same,"MABP, pO2, pCO2, pH or rectal temperature versus control animals",no significant differences
